{
  "source": "patent US20240228535A1",
  "about": "(priority 2022, published 2024)",
  "data": [
    {"target": "SARS2 coronavirus 3CL protease (Severe acute respiratory syndrome coronavirus 2, UniProt P0DTD1)", "experiment": "biochemical", "conditions": "5 nM enzyme, 30 min pre-incubation with compound, 15 μM peptide substrate, 4 h at room temperature; read-out: FRET Potency (nM); IC50 values in the SARS2 3CLPro FRET assay", "units": {"IC50": "nM"}, "values": [
      {"smiles": "O=C(NC1CC1)C(=O)[C@H](C[C@@H]1CCNC1=O)NC(=O)c1cc(Cl)ccc1NC(=O)C(F)(F)F", "note": "[Example 51, 5-chloro-N-[(1S)-3-(cyclopropylamino)-2,3-dioxo-1-[[(3S)-2-oxopyrrolidin-3-yl]methyl]propyl]-2-[(2,2,2-trifluoroacetyl)amino] benzamide]", "IC50": 8.6},
      {"smiles": "C[C@@H]1C[C@@H](C[C@H](NC(=O)c2cc(Cl)cnc2NC(=O)CCC(F)(F)F)C(=O)C(=O)NC2CC2)C(=O)N1", "note": "[Example 52, 5-chloro-N-[(1S)-3-(cyclopropylamino)-1-[[(3S,5R)-5-methyl-2-oxo-pyrrolidin-3-yl]methyl]-2,3-dioxo-propyl]-2-(4,4,4-trifluorobutanoylamino) pyridine-3-carboxamide]", "IC50": 8.4},
      {"smiles": "C[C@@H]1C[C@@H](C[C@H](NC(=O)c2cc(Cl)c(F)cc2NC(=O)CCC(F)(F)F)C(=O)C(=O)NC2CC2)C(=O)N1", "note": "[Example 53, 5-chloro-N-[(1S)-3-(cyclopropylamino)-1-[[(3S,5R)-5-methyl-2-oxo-pyrrolidin-3-yl]methyl]-2,3-dioxo-propyl]-4-fluoro-2-(4,4,4-trifluorobutanoylamino) benzamide]", "IC50": 8.3},
      {"smiles": "C[C@@H]1C[C@@H](C[C@H](NC(=O)c2cc(Cl)ccc2NC(=O)C23CC(F)(C2)C3)C(=O)C(=O)NC2CC2)C(=O)N1", "note": "[Example 54, N-[4-chloro-2-[[(1S)-3-(cyclopropylamino)-1-[[(3S,5R)-5-methyl-2-oxo-pyrrolidin-3-yl]methyl]-2,3-dioxo-propyl]carbamoyl]phenyl]-3-fluoro-bicyclo[1.1.1]pentane-1-carboxamide]", "IC50": 8.2},
      {"smiles": "CNC(=O)C(=O)[C@H](C[C@@H]1C[C@@H](C)NC1=O)NC(=O)c1cc(Cl)ccc1NC(=O)c1ccc(C(F)(F)F)cn1", "note": "[Example 55, N-[4-chloro-2-[[(1S)-3-(methylamino)-1-[[(3S,5R)-5-methyl-2-oxo-pyrrolidin-3-yl]methyl]-2,3-dioxo-propyl]carbamoyl]phenyl]-5-(trifluoromethyl)pyridine-2-carboxamide]", "IC50": 8.2},
      {"smiles": "O=C(CCC(F)(F)F)Nc1cc(F)c(Cl)cc1C(=O)N[C@@H](C[C@@H]1CCNC1=O)C(=O)C(=O)NC1CC1", "note": "[Example 56, 5-chloro-N-[(1S)-3-(cyclopropylamino)-2,3-dioxo-1-[[(3S)-2-oxopyrrolidin-3-yl]methyl]propyl]-4-fluoro-2-(4,4,4-trifluorobutanoylamino) benzamide]", "IC50": 8.1},
      {"smiles": "CNC(=O)C(=O)[C@H](C[C@@H]1C[C@@H](C)NC1=O)NC(=O)c1cc(Cl)cnc1NC(=O)c1ccc(F)cc1", "note": "[Example 57, 5-chloro-2-[(4-fluorobenzoyl)amino]-N-[(1S)-3-(methylamino)-1-[[(3S,5R)-5-methyl-2-oxo-pyrrolidin-3-yl]methyl]-2,3-dioxo-propyl]pyridine-3-carboxamide]", "IC50": 8.1},
      {"smiles": "C[C@@H]1C[C@@H](C[C@H](NC(=O)c2cc(Cl)cnc2NC(=O)c2cccc(F)c2)C(=O)C(=O)NC2CC2)C(=O)N1", "note": "[Example 58, 5-chloro-N-[(1S)-3-(cyclopropylamino)-1-[[(3S,5R)-5-methyl-2-oxo-pyrrolidin-3-yl]methyl]-2,3-dioxo-propyl]-2-[(3-fluorobenzoyl)amino] pyridine-3-carboxamide]", "IC50": 8.1},
      {"smiles": "C[C@@H]1C[C@@H](C[C@H](NC(=O)c2cc(Cl)ccc2NC(=O)C2CC(F)(F)C2)C(=O)C(=O)NC2CC2)C(=O)N1", "note": "[Example 59, 5-chloro-N-[(1S)-3-(cyclopropylamino)-1-[[(3S,5R)-5-methyl-2-oxo-pyrrolidin-3-yl]methyl]-2,3-dioxo-propyl]-2-[(3,3-difluorocyclobutanecarbonyl)amino]benzamide]", "IC50": 8},
      {"smiles": "C[C@@H]1C[C@@H](C[C@H](NC(=O)c2cc(C#N)ccc2NC(=O)c2cccc(C(F)(F)F)c2)C(=O)C(=O)NC2CC2)C(=O)N1", "note": "[Example 61, 5-cyano-N-[(1S)-3-(cyclopropylamino)-1-[[(3S,5R)-5-methyl-2-oxo-pyrrolidin-3-yl]methyl]-2,3-dioxo-propyl]-2-[[3-(trifluoromethyl)benzoyl]amino]benzamide]", "IC50": 7.7},
      {"smiles": "C[C@@H]1C[C@@H](C[C@H](NC(=O)c2cc(Cl)ccc2NC(=O)C2(CC(F)(F)F)CC2)C(=O)C(=O)NC2CC2)C(=O)N1", "note": "[Example 62]", "IC50": 7.6},
      {"smiles": "O=C(NC1CC1)C(=O)[C@H](C[C@@H]1CCNC1=O)NC(=O)c1cc(Cl)ccc1NC(=O)C1CC(F)(F)C1", "note": "[Example 63, 5-chloro-N-[(1S)-3-(cyclopropylamino)-2,3-dioxo-1-[[(3S)-2-oxopyrrolidin-3-yl]methyl]propyl]-2-[(3,3-difluorocyclobutanecarbonyl)amino]benzamide]", "IC50": 7.3},
      {"smiles": "C[C@@H]1C[C@@H](C[C@H](NC(=O)c2cc(C(F)(F)F)ccc2NC(=O)c2cccc(C(F)(F)F)c2)C(=O)C(=O)NC2CC2)C(=O)N1", "note": "[Example 64, N-[(1S)-3-(cyclopropylamino)-1-[[(3S,5R)-5-methyl-2-oxo-pyrrolidin-3-yl]methyl]-2,3-dioxo-propyl]-5-(trifluoromethyl)-2-[[3-(trifluoromethyl)benzoyl]amino]benzamide]", "IC50": 7.3},
      {"smiles": "C[C@@H]1C[C@@H](C[C@H](NC(=O)c2cc(Cl)ccc2NC(=O)c2cccc(C(F)(F)F)c2)C(=O)C(=O)NC2CC2)C(=O)N1", "note": "[Example 66, 5-chloro-N-[(1S)-3-(cyclopropylamino)-1-[[(3S,5R)-5-methyl-2-oxo-pyrrolidin-3-yl]methyl]-2,3-dioxo-propyl]-2-[[3-(trifluoromethyl)benzoyl]amino]benzamide]", "IC50": 7},
      {"smiles": "C[C@@H]1C[C@@H](C[C@H](NC(=O)c2cc(F)cnc2NC(=O)c2cccc(C(F)(F)F)c2)C(=O)C(=O)NC2CC2)C(=O)N1", "note": "[Example 67, N-[(1S)-3-(cyclopropylamino)-1-[[(3S,5R)-5-methyl-2-oxo-pyrrolidin-3-yl]methyl]-2,3-dioxo-propyl]-5-fluoro-2-[[3-(trifluoromethyl)benzoyl]amino]pyridine-3-carboxamide]", "IC50": 7},
      {"smiles": "O=C(CCC(F)(F)F)Nc1ccc(Cl)cc1C(=O)N[C@@H](C[C@@H]1C[C@@H](C(F)(F)F)NC1=O)C(=O)C(=O)NC1CC1", "note": "[Example 68, 5-chloro-N-[(1S)-3-(cyclopropylamino)-2,3-dioxo-1-[[(3R,5S)-2-oxo-5-(trifluoromethyl)pyrrolidin-3-yl]methyl]propyl]-2-(4,4,4-trifluorobutanoylamino) benzamide]", "IC50": 7},
      {"smiles": "C[C@@H]1C[C@@H](C[C@H](NC(=O)c2cc(Cl)ccc2NC(=O)C23CC(C(F)(F)F)(C2)C3)C(=O)C(=O)NC2CC2)C(=O)N1", "note": "[Example 69, N-[4-chloro-2-[[(1S)-3-(cyclopropylamino)-1-[[(3S,5R)-5-methyl-2-oxo-pyrrolidin-3-yl]methyl]-2,3-dioxo-propyl]carbamoyl]phenyl]-3-(trifluoromethyl)bicyclo[1.1.1] pentane-1-carboxamide]", "IC50": 6.9},
      {"smiles": "CNC(=O)C(=O)[C@H](C[C@@H]1C[C@@H](C)NC1=O)NC(=O)c1cc(C(F)F)ccc1NC(=O)c1cccc(C(F)(F)F)c1", "note": "[Example 70, 5-(difluoromethyl)-N-[(1S)-3-(methylamino)-1-[[(3S,5R)-5-methyl-2-oxo-pyrrolidin-3-yl]methyl]-2,3-dioxo-propyl]-2-[[3-(trifluoromethyl)benzoyl]amino]benzamide]", "IC50": 6.9},
      {"smiles": "O=C(NC1CC1)C(=O)[C@H](C[C@@H]1CCNC1=O)NC(=O)c1cc(Cl)ccc1NC(=O)c1cncc(C(F)(F)F)c1", "note": "[Example 71, N-[4-chloro-2-[[(1S)-3-(cyclopropylamino)-2,3-dioxo-1-[[(3S)-2-oxopyrrolidin-3-yl]methyl]propyl]carbamoyl]phenyl]-5-(trifluoromethyl)pyridine-3-carboxamide]", "IC50": 6.6},
      {"smiles": "CNC(=O)C(=O)[C@H](C[C@@H]1C[C@@H](C)NC1=O)NC(=O)c1cc(Cl)ccc1NC(=O)c1cc(C(F)(F)F)ccn1", "note": "[Example 72, N-[4-chloro-2-[[(1S)-3-(methylamino)-1-[[(3S,5R)-5-methyl-2-oxo-pyrrolidin-3-yl]methyl]-2,3-dioxo-propyl]carbamoyl]phenyl]-4-(trifluoromethyl)pyridine-2-carboxamide]", "IC50": 6.3},
      {"smiles": "C[C@@H]1C[C@@H](C[C@H](NC(=O)c2cc(Cl)ccc2NC(=O)c2cccc(F)c2)C(=O)C(=O)NC2CC2)C(=O)N1", "note": "[Example 73, 5-chloro-N-[(1S)-3-(cyclopropylamino)-1-[[(3S,5R)-5-methyl-2-oxo-pyrrolidin-3-yl]methyl]-2,3-dioxo-propyl]-2-[(3-fluorobenzoyl)amino] benzamide]", "IC50": 6.2},
      {"smiles": "CNC(=O)C(=O)[C@H](C[C@@H]1C[C@@H](C)NC1=O)NC(=O)c1cc(Cl)ccc1NC(=O)c1ccnc(C(F)(F)F)c1", "note": "[Example 74]", "IC50": 6.2},
      {"smiles": "O=C(NC1CC1)C(=O)[C@H](C[C@@H]1CCNC1=O)NC(=O)c1cc(Cl)ccc1NC(=O)c1ccnc(C(F)(F)F)c1", "note": "[Example 75, N-[4-chloro-2-[[(1S)-3-(cyclopropylamino)-2,3-dioxo-1-[[(3S)-2-oxopyrrolidin-3-yl]methyl]propyl]carbamoyl]phenyl]-2-(trifluoromethyl)pyridine-4-carboxamide]", "IC50": 6},
      {"smiles": "CNC(=O)C(=O)[C@H](C[C@@H]1C[C@@H](C)NC1=O)NC(=O)c1cc(Cl)ccc1NC(=O)c1ccc(C(F)(F)F)nc1", "note": "[Example 76, N-[4-chloro-2-[[(1S)-3-(methylamino)-1-[[(3S,5R)-5-methyl-2-oxo-pyrrolidin-3-yl]methyl]-2,3-dioxo-propyl]carbamoyl]phenyl]-6-(trifluoromethyl)pyridine-3-carboxamide]", "IC50": 5.3},
      {"smiles": "C[C@@H]1C[C@@H](C[C@H](NC(=O)c2cc(F)ccc2NC(=O)c2ccnc(C(F)(F)F)c2)C(=O)C(=O)NC2CC2)C(=O)N1", "note": "[Example 77, N-[2-[[(1S)-3-(cyclopropylamino)-1-[[(3S,5R)-5-methyl-2-oxo-pyrrolidin-3-yl]methyl]-2,3-dioxo-propyl]carbamoyl]-4-fluoro-phenyl]-2-(trifluoromethyl)pyridine-4-carboxamide]", "IC50": 5.3}
    ]}
  ]
}
